The subject of experiment [1] is C. glabrata adherence to CHO-Lec2 cells. Nature of the experiment: Yeast adherence to CHO-Lec2 epithelial cells. The experiment is classed as cell-based, Candida glabrata. The conditions noted are these: ketoconazole 40 µM alone, last 15 minutes.
Experiment [2] deals with C. glabrata strains with wild-type or gain-of-function CgPDR1. The experiment is classed as cell-based, Candida glabrata. The conditions noted are these: azole alone.
The subject of experiment [3] is C. glabrata. Kind of experiment: Mouse disseminated fungal burden model. The conditions noted are these: mice, CgPDR1 wild-type strain; 25 mg/kg fluconazole (low FLU) alone. The experiment is classed as in vivo, Candida glabrata.
In experiment [4] the test system is C. glabrata. The experiment is classed as in vivo, Candida glabrata. The conditions noted are these: mice; fluconazole 100 mg/kg/day, 7 days.
In experiment [5] the test system is C. glabrata PDR1 wild-type or PDR1^L280F strains. Also noted: species or system Candida glabrata. The conditions noted are these: in vivo.

With `CC(=O)N1CCN(c2ccc(OCC3COC(Cn4ccnc4)(c4ccc(Cl)cc4Cl)O3)cc2)CC1` (stereo not drawn) [ketoconazole], in experiment [1], the “relative adherence of PDR1^L280F mutant to epithelial (CHO-Lec2) cells” value is “reduced relative adherence to levels comparable to a PDR1 wild-type strain”. Moreover, in experiment [2], the “sensitivity of CgPDR1 wild-type strain to azole on plates” value is recorded as “sensitive”.
As to `OC(Cn1cncn1)(Cn1cncn1)c1ccc(F)cc1F` [fluconazole], in experiment [3], the tissue fungal burden entry is on record as “poorly reduced tissue burden”. The “fungal burden in the bladder and kidney” value in experiment [4] was “significantly reduces fungal burden”. In addition, in experiment [5], the “survival of G. mellonella larvae” value is given as “sensitive to fluconazole alone” and the “survival of G. mellonella larvae compared to vehicle” value is given as “did not significantly increase survival”.
